Experimental data as given in patent US20250011316A1, “PEROXIREDOXIN 3 INHIBITORS AND METHODS OF USE FOR TREATING CANCER” (Wake Forest University Health Sciences, priority 2022, published 2025).
Values after ≈ are worked out from the molar mass of the structure shown.

How the values were obtained:
purified human PRX3 = target: T1, purified human PRX3 (Homo sapiens, UniProt P30048); assay: Biochemical PRX3 Inhibition Assay (non-reducible crosslink by SDS PAGE + single adduct by MALDI-TOF MS); details: 100 μM PRX3 with TRX2/thioredoxin reductase/NADPH system and hydrogen peroxide, 1-2 hr at 37° C.
T1 construct: made in house
T1 sequence (P30048 62-256): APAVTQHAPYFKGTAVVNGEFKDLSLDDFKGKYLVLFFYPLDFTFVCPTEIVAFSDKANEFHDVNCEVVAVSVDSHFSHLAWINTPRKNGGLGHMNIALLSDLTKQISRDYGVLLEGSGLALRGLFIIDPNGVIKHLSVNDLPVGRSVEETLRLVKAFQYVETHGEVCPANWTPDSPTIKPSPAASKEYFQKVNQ
Excerpt: The compounds described herein generally react with two essential cysteine residues in the mitochondrial peroxidase PRX3, leading to the formation of a non-reducible, covalent crosslink of two PRX3 monomers. This crosslink inactivates PRX3. Increased PRX3 crosslink is associated with mitochondrial stress, increased cell death in cell models of malignant mesothelioma and is associated with decreased tumor volume in a mouse model. Cunniff et al. (2015) PloS one 10, e0127310.
(§1) To test the activity of compounds, two complimentary assays were used as described below. The Biochemical PRX3 Inhibition Assay tests the ability of each compound to crosslink PRX3 in a simple, in vitro system. In the Cellular Activity Assay, we are testing the ability of compounds to kill SK—OV-3 ovarian cancer cells.
This assay tests the ability of each compound to form a covalent adduct with PRX3. The assay is performed as described in Nelson et al. (2021) Antioxidants (Basel) 10, 150; and Cunniff et al. (2015) PloS one 10, e0127310, and follows the appearance of non-reducible PRX3 crosslinks by SDS PAGE gel electrophoresis and follows the appearance of single PRX3 adducts by mass spectrometry. For this assay, purified human PRX3, hydrogen peroxide (the PRX3 substrate) and all the components required to enable PRX3 to catalytically cycle (thioredoxin-thioredoxin reductase-NAPDH system) are included (details below).
The biochemical PRX3 Inhibition assay contains 100 μM PRX3, 50 μM human TRX2, 0.5 μM mouse thioredoxin reductase, and a NADPH regenerating system composed of 3.2 mM glucose 6-phosphate, 3.2 U/ml glucose 6-phosphate dehydrogenase and 0.4 mM NADPH. Samples are incubated for 1-2 hr at 37° C. with either 0.2 mM TS (positive control), compounds or an equivalent volume of DMSO (negative control). During this incubation, hydrogen peroxide is added to induce turnover of PRX3. Reactions are stopped by the addition of a buffer containing 100 mM dithiothreitol (to break disulfide bonds) and SDS (detergent to denature proteins). NADPH, Glucose 6-Phosphate, and glucose 6-phosphate dehydrogenase were purchased from Sigma Aldrich. PRX3, thioredoxin, and thioredoxin reductase were all purified to >98% purity in the Lowther laboratory according to protocols referenced in Nelson et al. (2021) Antioxidants (Basel) 10, 150; and Cunniff et al. (2015) PloS one 10, e0127310.
To measure the amount of PRX3 crosslink, proteins in the reaction were separated by SDS-polyacrylamide gel electrophoresis and stained for total protein using GelCode Blue (Life Technologies). The amount of unmodified PRX3 and TS-PRX3 crosslink was measured by densiometric analysis of the signal for the PRX3 band running at the MW of a PRX3 crosslink (˜46 kDa) compared to the PRX3 signal at the MW of the un-modified PRX3 (−23 kD).
To measure covalent adduct formation on a single PRX3 monomer, each reaction was exchanged into a mass spectrometry compatible buffer containing 40 mM ammonium citrate, pH 8.3 made in HPLC water. Sample was mixed 1:1 with a matrix solution containing 30 mg/mL sinapinic acid in 70% (vol/vol) acetonitrile, 0.2% formic acid and spotted to onto the sample plate. PRX3 mass was measured by MALDI-TOF MS analysis on a Bruker Daltonics MALDI-TOF MS spectrometer. Spectra were analyzed in FLEXAnalysis Software. The intensity of the reduced PRX3 peak (SH) and intensity of the analog adduct peak was determined and corrected for background signal at the adduct peak in the DMSO control. The fraction of single analog adduct in the monomer peak was determined by dividing the intensity of the adduct peak by the summed intensity of the SH and adduct peaks.

[1] = tested on: human SK—OV-3 ovarian cancer cells; assay: Cellular Activity Assay (cytotoxicity, crystal violet); assay type: cell-based; details: Homo sapiens, SK—OV-3 cells, treated for 48 hr, 0.1-100 μM, crystal violet absorbance at 540 nm
Excerpt: as §1
The Cellular Activity Assay measures the EC50 of each compound in human SK—OV-3 ovarian cancer cells TS to be taken into the cell, transported to the mitochondria, and crosslink PRX3.
The cytotoxicity of compounds was measured as described in Nelson et al. (2021) Antioxidants (Basel) 10, 150; Cunniff et al. (2015) PloS one 10, e0127310; and Newick et al. (2012) PloS one 7, e39404. SK—OV-3 is an adherent, epithelial, adenocarcinoma cell line obtained from ATCC (ref #: HTB-77). SK—OV-3 cells are resistant to the commonly used chemotherapeutics, cis-platinum and doxorubicin. For this […], SK—OV-3 cells were plated in a 96-well plate. After 24 h recovery, the cells were treated for 48 hr with multiple concentrations of each compound ranging from 0.1-100 μM.
Cells were washed with PBS to remove dead cells and the remaining live cells were fixed with 3.0% formaldehyde and stained with 0.1% crystal violet. The amount of crystal violet was determined by reading the absorbance at 540 nm (crystal violet dye dissolved in 100% methanol) using a plate reader. The signal for crystal violet dye is proportional to the biomass of remaining live cells. GraphPad Prism9 software was used to calculate the effective inhibitory concentration (EC50) of test compounds. Results for each compound, are normalized to the amount of cells in control wells treated with the equivalent concentration of DMSO (negative control). TS or Compound 4 were included in each set of assays as a positive control.

[2] = tested on: Enterococcus hirae (ATCC #10541); assay: Antimicrobial Activity Assay (MIC / growth inhibition); assay type: cell-based; details: ATCC10541; Enterococcus hirae; analogs tested at 20 μM final concentration
Protocol: The overnight growth was then diluted into growth media to make a single solution of E. hirae with a final optical density at 600 nm=0.02 AU. A 20 mM stock solution of Thiostrepton in DMSO was made and used to make multiple dilutions of TS in DMSO. Each TS dilution (0.1 mL) was then added to a test tube containing 10 mL of the diluted E. hirae and grown at 37° C. overnight while shaking at 180 rpm. The next morning, each tube was visually inspected to determine if the cells grew. Final concentrations tested were 0.120, 0.090, 0.075, 0.060, 0.045, 0.030, and 0.015 μM TS. […] Three replicates were made on three separate days (n=9). […] For TS analogs, the dilute E. hirae was treated with 20 μM final concentration of each analog (three replicates each). […] DMSO was used as a positive control (complete cell growth) and 20 μM thiostrepton was used as a negative control.

Solubility Assay (HPLC) = assay type: physicochemical; details: HEPES/NaCl buffer, aqueous with cosolvent or surfactant or cyclodextrin, kinetic from dmso stock; 20 mM HEPES, 100 mM NaCl, pH 7.5, 18-24 hours at ambient temperature; read-out: Solubility
Protocol: A 20 mM stock solution was made for each compound in DMSO. To measure solubility, 0.03-0.05 mL of the stock was added to 0.27 mL 20 mM HEPES, 100 mM NaCl, pH 7.5. The solution was mixed and rotated 18-24 hours at ambient temperature. The next day, solutions were centrifuged for 10 min at 20,000×g at […] to remove insoluble, solid material. Next, 100 μL of the supernatant containing the soluble compound was added to 900 μL DMSO and High Performance Liquid Chromatography was performed as described in Table 1 and either HIPLC gradient 1 (Table 2) or HIPLC gradient 2 (Table 3). For each analog, a 200 μM standard and a 20 μM standard were prepared and run in parallel (standards were dissolved completely in […]). The amount ofLcompound in the experimental sample was calculated by comparing the area under the curve for compound peak to the area for the closest standard and correcting for dilution.

| SMILES | PRX3 Inhibition (Crosslink + Mono-adduct) (purified human PRX3) | EC50 [1] [µM] | MIC [2] [µM] | solubility (Solubility Assay (HPLC)) [µM] | EC50 ([1]; SK-OV-3, 48 h) [µM] |
| --- | --- | --- | --- | --- | --- |
| C=C(NC(=O)c1csc(C2CCN(C(=O)OC(C)(C)C)CC2)n1)C(=O)NC(=C)C(=O)OC [Compound 1, Tert-butyl 4-(4-((3-((3-methoxy-3-oxoprop-1-en-2-yl)amino)-3-oxoprop-1-en-2-yl)carbamoyl)thiazol-2-yl)piperidine-1-carboxylate] | ++ (50-90%) | 1 to 10 | > 20 | 100 to 1000 (≈ 46.5 to 465 µg/mL) | – |
| C=C(NC(=O)c1csc(-c2ccc(NC(=O)OC(C)(C)C)nc2)n1)C(=O)NC(=C)C(=O)OC [Compound 2, Methyl 2-(2-(2-(6-((tert-butoxycarbonyl)amino)pyridine-3-yl)thiazole-4-carboxamido)acrylamido acrylate] | ++ (50-90%) | – | > 20 | < 100 | 1 to 10 |
| C=C(NC(=O)c1csc(C2CCCN(C(=O)OC(C)(C)C)C2)n1)C(=O)NC(=C)C(=O)OC (centres unmarked) [Compound 3, Tert-butyl 3-(4-((3-((3-methoxy-3-oxoprop-1-en-2-yl)amino)-3-oxoprop-1-en-2-yl)carbamoyl)thiazol-2-yl)piperidine-1-carboxylate] | ++ (50-90%) | 10 to 25 | > 20 | 100 to 1000 (≈ 46.5 to 465 µg/mL) | – |
| C=C(NC(=O)c1csc(-c2ccc(NC(=O)CCCCCBr)cc2)n1)C(=O)NC(=C)C(=O)OC [Compound 4, Methyl 2-(2-(2-(4-(6-bromohexanamido)phenyl)thiazole-4-carboxamido)acrylamido)acrylate] | ++ (50-90%) | 1 to 10 | > 20 | < 100 | – |
| C=C(NC(=O)c1csc(-c2ccc(NC(=O)OC(C)(C)C)cc2)n1)C(=O)NC(=C)C(=O)OC [Compound 5, Methyl 2-(2-(2-(4-((tert-butoxycarbonyl)amino)phenyl)thiazole-4-carboxamido)acrylamido)acrylate] | +++ (>90%) | 1 to 10 | > 20 | < 100 | – |
| C=C(NC(=O)c1csc(-c2ccc(C(=O)NCCCCCCOS(C)(=O)=O)nc2)n1)C(=O)NC(=C)C(=O)OC [Compound 6, Methyl 2-(2-(2-(6-((6-((methylsulfonyl)oxy)hexyl)carbamoyl)pyridine-3-yl)thiazole-4-carboxamido)acrylamido)acrylate] | +++ (>90%) | 1 to 10 | > 20 | < 100 | – |
| C=C(NC(=O)c1csc(-c2ccc(OC)cc2)n1)C(=O)NC(=C)C(=O)OC [Compound 7, Methyl 2-(2-(2-(4-methoxyphenyl)thiazole-4-carboxamido)acrylamido)acrylate] | ++ (50-90%) | 1 to 10 | > 20 | < 100 | – |
| C=C(NC(=O)c1csc(-c2ccc(CNC(=O)OC(C)(C)C)cc2)n1)C(=O)NC(=C)C(=O)OC [Compound 8, Methyl 2-(2-(2-(4-(((tert-butoxycarbonyl)amino)methyl)phenyl)thiazole-4-carboxamido)acrylamido)acrylate] | +++ (>90%) | 1 to 10 | > 20 | < 100 | – |
| C=C(NC(=O)c1csc(C2=CCN(C(=O)OC(C)(C)C)CC2)n1)C(=O)NC(=C)C(=O)OC [Compound 9, Tert-butyl 4-(4-((3-((3-methoxy-3-oxoprop-1-en-2-yl)amino)-3-oxoprop-1-en-2-yl)carbamoyl)thiazol-2-yl)-3,6-dihydropyridine-1(2H)-carboxylate] | +++ (>90%) | 1 to 10 | > 20 | < 100 | – |
| C=C(NC(=O)c1csc(-c2ccc(C(=O)NCCOC)cc2)n1)C(=O)NC(=C)C(=O)OC [Compound 10, Methyl 2-(2-(2-(4-((2-methoxyethyl)carbamoyl)phenyl)thiazole-4-carboxamido)acrylamido)acrylate] | +++ (>90%) | 1 to 10 | > 20 | < 100 | – |
| C=C(NC(=O)c1csc(N2CCC[C@@H](NC(=O)OC(C)(C)C)C2)n1)C(=O)NC(=C)C(=O)OC [Compound 11, Methyl (R)-2-(2-(2-(3-((tert-butoxycarbonyl)amino)piperidin-1-yl)thiazole-4-carboxamido)acrylamido)acrylate] | +++ (>90%) | 1 to 10 | > 20 | < 100 | – |
